Data as given in US20230095341A1, “COMPOSITIONS AND METHODS FOR TREATING NEURODEGENERATIVE, MYODEGENERATIVE, AND LYSOSOMAL STORAGE DISORDERS” (GEORGETOWN UNIVERSITY, priority 2020, published 2023).
“Also recorded” adds a separate entry of the source.

Columns and labels:
tau = experiment: Tau ELISA of whole brain lysates from rTG4510 mice (CL-287-2); format: in vivo, mouse (rTG4510, expressing human P301L Tau); conditions: 5 mg/kg; 12 month old rTG4510 mice
Procedure: Tauopathy rTG4510 mice expressing human P301L Tau driven by CAMIII were treated I.P. for 7 or 21 consecutive days with 1.25 mg/kg, 2.5 mg/kg, 5.0 mg/kg of BK40143 or Dimethyl sulfoxide (DMSO).
pTau Ser396 (Invitrogen, KHB7031) ELISA was performed according to manufacturer's protocol on samples collected from DMSO and 2.5mgkg. S.Omg′kg, and 10 mg/kg treated mice. Samples were total brain lysates extracted in lX STEN buffer. Ordinary one-way ANOVA or Student's ! test was used. * P<0.05

[1] = tested on: B35 rat neuroblastoma cells; experiment: Lactate dehydrogenase (LDH) assay, cell toxicity; format: cell-based; conditions: 5 hours, concentration given in the value
Procedure: (§1) Rat neuroblastoma B35 cells were grown in Dulbecco's Modified Eagle's Medium (DMEM) with 10% Fetal Bovine Serum (FBS) and 1% penicillin/streptomycin and incubated at 37° C. with 5% CO2. For the experiments, cells were transferred to 12-well plates (Cat. #150628, ThermoFisher, Waltham, Mass.) and grown to at least 70% confluence. Transient transfection was performed with 3pg P301L tau (Cat. #30145, Addgene) cDNA or 3pg human a-synuclein cDNA using Fugene HD transfection reagent (Cat. #E2311, Promega, Madison Wis.) for 24 hours. Cells were treated with ImM, I00pM, 10pM, IpM, 0.lIM, 0.01pMl, and 0.001pM dissolved in DMSO or an equivalent SuL of DMSO for 5 hours. Cell culture media was collected and cells were harvested using sodium-tris, EDTA, NP-40 (STEN) buffer and centrifuged at 10,000×g for 20 minutes at 4′C and supernatant was collected. Cell viability was determined via lactate dehydrogenase assay (Cat. #88954, Thermofisher) and MTT assay (Cat. #V13154, Thennofisher). Protein was extracted by removing culture medium and adding 0.2 ml lx STEN buffer (50 mM Tris (pH 7.6), 150 mM NaCl, 2 mM EDTA, 0.2% NP-40, 0.2% BSA, 20 mM PMSF and protease cocktail inhibitor) to cell layer and incubated on ice for 10 minutes. The bottom of the well was scraped and allowed to incubate on ice for an additional 10 minutes. Cell lysates were collected, stored at -80° C., and used for additional analyses.
(§2) Compound 1 (BK5018), Compound 2 (BK5026), Compound 3 (BK5029), Compound 4 (BD5040), Compound 6 (CL2-296). Compound 7 (CL-2-287-1) and Compound 8 (CL-2-287-2) with molecular weights of 284, 339.265, 264, 339, 269 and 247 gimol, respectively, were diluted in Dimethyl Sulfoxide (DMSO) to final concentrations of 100 pM, 10 µM, 1 pM, 0.1 pM, 0.01 pM, and 0.001 pM. Drugs were stored at −80° C.
Cellular cytotoxicity was quantitatively measured by assessment of LDH, a cytosolic enzyme that is released from damaged cells into the cellular media, after exposure to the drug 5 hours after initial dosage. The cell culture media was collected, and an aliquot was coupled with a lactate and NAD+. LDH catalyzes the reaction that converts lactate into pyruvate to produce NADH. NADH, in turn, reduces a tetrazolium salt (NT) into a red fornazan product. The amount of LDH in the media is proportional to the amount of formazan which was measured at 490 nn. The absorbance at 680 nm, to measure the background signal from the instrument, was subtracted from the absorbance at 490 nm to calculate the LDH activity. CelfCulture

[2] = tested on: B35 rat neuroblastoma cells; experiment: MTT assay, cell viability; format: cell-based; conditions: 5 hours, concentration given in the value
Procedure: as §1, §2
To measure cell viability, cells were incubated with 500 pL of Dulbecco's Modified Eagle's Medium (DMEf) containing 50 pL of (3-[4,5-dimethylthiazol-2-yl]-2,5-diphenyl-tetrazolium bromide (ivT)) for 5 hours at 37° C. and 5% CO2. The media was aspirated so that 125 uL of media remained. The formazan salts were dissolved in 250 uL of DMSO. Absorbance was read against a blank containing 125 uL of media and MTT, and 250 uL of DMSO at 570 mn.

[3] = molecular target: T1, phosphorylated DDR1 (pDDR1 Tyr513, 296) (Mus musculus, UniProt Q03146); experiment: Western blot of phosphorylated DDR1; format: in vivo, mouse (rTG4510); conditions: vs DMSO, normalized to actin
T1 construct: Samples collected from DMSO, 2.5 mg/kg-, and 5.0 mg/kg-treated animals were electrophoresed; from tissue; the ELISA samples were total brain lysates
T1 sequence (Q03146 20-911): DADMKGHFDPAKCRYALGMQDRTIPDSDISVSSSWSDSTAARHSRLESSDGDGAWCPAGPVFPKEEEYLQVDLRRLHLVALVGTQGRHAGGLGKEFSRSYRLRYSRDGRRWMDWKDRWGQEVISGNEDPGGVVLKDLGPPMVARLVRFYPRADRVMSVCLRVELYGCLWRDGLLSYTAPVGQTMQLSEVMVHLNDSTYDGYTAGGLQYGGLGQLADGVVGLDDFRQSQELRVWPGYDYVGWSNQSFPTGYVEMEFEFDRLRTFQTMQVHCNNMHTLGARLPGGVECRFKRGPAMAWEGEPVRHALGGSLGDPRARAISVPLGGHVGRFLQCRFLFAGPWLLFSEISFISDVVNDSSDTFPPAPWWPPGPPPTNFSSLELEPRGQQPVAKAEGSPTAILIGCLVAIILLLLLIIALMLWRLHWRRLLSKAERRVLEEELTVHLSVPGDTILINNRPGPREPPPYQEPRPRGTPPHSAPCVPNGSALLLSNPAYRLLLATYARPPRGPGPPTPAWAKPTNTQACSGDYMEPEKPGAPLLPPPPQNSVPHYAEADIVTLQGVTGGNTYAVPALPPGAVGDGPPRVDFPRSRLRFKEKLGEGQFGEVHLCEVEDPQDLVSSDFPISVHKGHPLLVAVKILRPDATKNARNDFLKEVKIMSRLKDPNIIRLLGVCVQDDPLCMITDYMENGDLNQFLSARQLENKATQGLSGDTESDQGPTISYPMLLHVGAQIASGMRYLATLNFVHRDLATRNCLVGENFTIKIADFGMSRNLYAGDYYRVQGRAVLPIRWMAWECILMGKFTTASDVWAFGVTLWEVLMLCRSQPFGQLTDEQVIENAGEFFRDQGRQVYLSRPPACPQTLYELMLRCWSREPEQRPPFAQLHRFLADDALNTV

[4] = tested on: p-Tau AT8 (Ser202, Thr205); experiment: Western blot of p-Tau AT8 (Ser202, Thr205); format: in vivo, mouse (rTG4510, expressing human P301L tau); conditions: 2.5 mg/kg; vs DMSO
Procedure: (§3) Tauopathy rTG4510 mice (i.e., a mouse model that clinically manifest a tauopathy), expressing human P301L tau driven by a CAMrII promoter, approximately 9-12 months old, were treated intraperitoneally (I.P.) for 21 consecutive days, with 2.5 mg/kg (n=6) BK40197, 5.0 mg/kg (n=6) BK40197, or Dimethyl sulfoxide (DMSO) (n=7).
(§4) Samples collected from DMSO, 2.5 mg/kg-, and 5.0 mg/kg-treated animals were electrophoresed in a NuPAGE 10% Bis-Tris gel and transferred to a nitrocellulose membrane. Membranes were then probed for total humnan tau (HT-7 antibody and Tau-5 antibody) and phospho-tau (pTau AT180 antibody and pTau AT8 antibody), as well as actin, and treated with an anti-mouse secondary antibody. before exposure using SuperSignal West Dura (Thermo Fisher Scientific, Waltham, Mass.) substrates. Some animials were excluded from analysis due to low transgene expression.

[5] = tested on: Tauopathy rTG4510 mice expressing human P301L tau; experiment: Open-field behavior; format: in vivo, mouse
Procedure: as §3
Open-field behavior was assessed in an open-field apparatus where animals were tracked by photocell beams along the arena floor for 60 minutes. Data were collected and analyzed for total distance traveled (cm), total time spent moving (sec), and velocity (distance/time) during the 60-minute trial. A center zone was digitally defined in the software, in the center of the apparatus, and center zone entries during the 60-minute trial were recorded.
For nest shredding, Mann-Whitney analysis was used within groups, between timepoints, and Kruskal-Wallis analysis was used between treatment groups. For open-field studies, : ordinary one-way ANOVA or Student's I test was used.

p-Tau (Ser396) = experiment: pTau Ser396 ELISA of total brain lysates; format: in vivo, mouse (rTG4510, expressing human P301L tau); conditions: for reduction in pTau Ser396: vs DMSO
Procedure: as §3
pTau Ser396 (Invitrogen, Cat. No. KHB7031, Carlsbad, Calif.) were performed according to manufacturer's protocol on samples collected from DMSO, 2.5 mg/kg-, and 5.0 mg/kg-treated animals. Samples for ELISA were total brain lysates extracted in IX STEN buffer.

p-Tau AT180 (Thr231) = experiment: Western blot of p-Tau AT180 (Thr231); format: in vivo, mouse (rTG4510, expressing human P301L tau); conditions: 2.5 mg/kg; vs DMSO
Procedure: as §3, §4

[6] = tested on: Tauopathy rTG4510 mice expressing human P301L tau; experiment: Overnight nest shredding (nesting) behavior; format: in vivo, mouse; conditions: 2.5 mg/kg I.P., three weeks
Procedure: Tauopathy rTG4510 mice (i.e., a mouse model that clinically manifest a tauopathy), expressing human P301L tau driven by a CAMrII promoter, approximately 9-12 months old, were treated intraperitoneally (I.P.) for 21 consecutive days, […], or Dimethyl sulfoxide (DMSO) (n=7).
Then, blinded, independent observers reviewed images of the overnight shredding and the average quality scores were calculated.
For nest shredding, Mann-Whitney analysis was used within groups, between timepoints, and Kruskal-Wallis analysis was used between treatment groups. For open-field studies, : ordinary one-way ANOVA or Student's I test was used. […]
Blinded independent observers reviewed images of the overnight shredding and the average quality scores were calculated.

| Compound | tau in whole brain lysates (tau) | cell toxicity, as measured by LDH assay [1] | cell toxicity, as measured by MTT assay [2] | reduction in phosphorylated DDR1 (pDDR1 Tyr513, 296) ([3]; 2.5 mg/kg) [%] | reduction in phosphorylated DDR1 (pDDR1 Tyr513, 296) ([3]; 5.0 mg/kg) [%] | reduction in the ratio of p-Tau AT8 (Ser202, Thr205) to total Tau [4] [%] | overall motor ability (open field) ([5]; 5.0 mg/kg I.P., 60 minutes open field) | open-field distance travelled ([5]; 5.0 mg/kg, sixty minutes, vs DMSO (ANOVA p=0.29)) | open-field time spent moving ([5]; 5.0 mg/kg, sixty minutes, vs DMSO (ANOVA p=0.32)) | hyperactivity/anxiety by observed center zone entries ([5]; 5.0 mg/kg, vs DMSO) | open-field velocity ([5]; 5.0 mg/kg, vs DMSO) | reduction in pTau Ser396 (p-Tau (Ser396); 2.5 mg/kg) [%] | reduction in pTau Ser396 (p-Tau (Ser396); 5.0 mg/kg) [%] | p-Tau (Ser396) levels (p-Tau (Ser396); dose dependent, 2.5 and 5.0 mg/kg, quantitative ELISA) | reduction in the ratio of p-Tau (Thr231) (AT180) to total Tau (p-Tau AT180 (Thr231)) [%] | nesting raw scores (nesting qualitative score) ([6]; vs 0 weeks (Mann-Whitney P=0.09) and vs DMSO (Kruskal-Wallis P=0.06)) | nesting mean difference scores ([6]; vs DMSO (Kruskal-Wallis P=0.06)) |
| --- | --- | --- | --- | --- | --- | --- | --- | --- | --- | --- | --- | --- | --- | --- | --- | --- | --- |
| O=C(O)c1ccccc1Nc1cccc(Cl)c1 [CL-2-287-2, 2-((3-Chlorophenyl)amino)benzoic acid] | significant reduction | at 100 uM or less did not show increased cell toxicity; also recorded: at 100 pM or less did not show increased cell toxicity | at 10 pM or less did not show increased cell toxicity | – | – | – | – | – | – | – | – | – | – | – | – | – | – |
| Cc1cccc(-c2cc3nccc(N4CCOCC4)c3s2)c1 [BK40197, 4-(2-(m-Tolyl)thieno[3,2-b]pyridin-7-yn)morpholine] | – | – | – | 22 | 21 | 14 | does not alter overall motor ability | non-significant reduction | non-signicant reduction; also recorded: non-significant reduction | no sign of hyperactivity/anxiety; also recorded: no sign of hyperactivity % anxiety | no difference in velocity | 11 | 23 | significantly reduces | 22 | nesting performance improved; also recorded: increase in performance | nesting performance improved; also recorded: increase in performance |
